Here are results for eleven molecules from patent US20230391736A1, “3-TETRAZOLYLMETHYL-1,3,5-TRIAZIN-2,4-DIONE COMPOUND INHIBITING CORONAVIRUS 3CL PROTEASE ACTIVITY AND PREPARATION METHOD AND USE THEREOF” (priority 2022, published 2023).

Where two headings read alike, the source gives them in different places.

One data set has as its system HEK293 cells. The data set can be described thus: In-vitro cytotoxicity by the MTT method, HEK293 cells. To be noted: 24 hrs. On the procedure:
(§1) The in-vitro cytotoxicity of Compounds 1, 12, and 17 was evaluated by the MTT method. HepG2, HEK293 and A549 cells in logarithmic growth phase were respectively trypsinized into a cell suspension. The cell density was adjusted to 5×10^4 cells/mL. 180 μL per well of the cell suspension was inoculated into a sterile 96-well plate at 37° C., and cultured in an incubator at 5% CO2 for 24 hrs. After the cells were attached to the bottom of the plate, 20 μL of the drug solutions over the concentration gradients were respectively added into each well, and 6 replicate wells were set in parallel. Also, a blank group (group without cells and drug) and a control group (group without drug) were set. The system was incubated in an incubator at 37° C. and 5% CO2 for 24 hrs, and then 20 μL per well of a 5 g/L MTT solution was added and incubated for another 4 hrs. After the incubation was completed, the culture medium in the well was gently aspirated, and 100 μL of DMSO was added to each well. Then the crystal was fully dissolved in a shaker for 10 min at a low speed. After that, the absorbency of each well was measured at OD490 nm in an enzymelinked immunodetector, and the survival rate of cells was calculated.
Background: Tetrazolium assays rely on reduction of a dye to a coloured formazan, in cell work by metabolically active cells.

A further data set concerns the target SARS-CoV-2 3CL^pro (Severe acute respiratory syndrome coronavirus 2 (2019-nCoV) (SARS-CoV-2), UniProt P0DTD1). The data set can be described thus: biochemical. Particulars: for IC50: FRET.
In another data set the test system is HepG2 cells. The data set can be described thus: In-vitro cytotoxicity by the MTT method, HepG2 cells. Particulars: 24 hrs. On the procedure:
as §1

In the next data set the test system is A549 cells. Kind of data set: In-vitro cytotoxicity by the MTT method, A549 cells. To be noted: 24 hrs. On the procedure:
as §1

The mark [1] stands for this setting: class symbols, read-out: IC50 (nM), inhibitory activity against 3CL^pro.
Where [2] appears, read: non-linear regression, read-out: IC50 against 3CL^pro.

On to `Cn1cc2cc(/N=c3\[nH]c(=O)n(Cc4nnn[nH]4)c(=O)n3Cc3cc(F)c(F)cc3F)c(Cl)cc2n1` [Compound 1], for which the “Survival rate of HEK293 cells” value in the data set with HEK293 cells (1.5625 nM) turned out to be 95.07%; with HEK293 cells (3.125 nM) it was 95.62%; in the data set on HEK293 cells (6.25 nM) it was 93.10%; in the data set with HEK293 cells (12.5 nM), 90.50%; in the data set on HEK293 cells (25 nM), 88.23%; in the data set on HEK293 cells (50 nM), 87.10%. Moreover, the figures for the “Survival rate of HEK293 cells” value in the data set on HEK293 cells (100 nM), in the data set on HEK293 cells (200 nM) and in the data set with HEK293 cells (400 nM) were 82.87%, 82.56% and 80.83%, respectively. In addition, the IC50 – broadly, the concentration at which inhibition is half-maximal – was under 200 nM at SARS-CoV-2 3CL^pro (setting [1]) and 120 nM on SARS-CoV-2 3CL^pro (setting [2]). For the same molecule, the “inhibition percentage of 3CL^pro” value at SARS-CoV-2 3CL^pro (concentration 0.1 nM) was found to be 0.86%; on SARS-CoV-2 3CL^pro (concentration 1 nM) it was 2.12%; against SARS-CoV-2 3CL^pro (concentration 5 nM) it was 7.77%; on SARS-CoV-2 3CL^pro (concentration 10 nM), 9.75%; at SARS-CoV-2 3CL^pro (concentration 20 nM) it was 14.30%; against SARS-CoV-2 3CL^pro (concentration 30 nM) it was 18.23%. Further, the “inhibition percentage of 3CL^pro” value was determined as 21.89% on SARS-CoV-2 3CL^pro (concentration 50 nM), 58.21% against SARS-CoV-2 3CL^pro (concentration 100 nM), 73.44% at SARS-CoV-2 3CL^pro (concentration 500 nM) and 89.12% on SARS-CoV-2 3CL^pro (concentration 1000 nM). Also, the “Survival rate of HepG2 cells” value is 97.17% with HepG2 cells (1.5625 nM); 96.73% with HepG2 cells (3.125 nM); 95.83% in the data set with HepG2 cells (6.25 nM); 93.62% in the data set with HepG2 cells (12.5 nM); 90.15% with HepG2 cells (25 nM); 89.09% in the data set on HepG2 cells (50 nM). Moreover, the “Survival rate of HepG2 cells” value with HepG2 cells (100 nM) is listed as 85.37%; with HepG2 cells (200 nM), 84.76%; with HepG2 cells (400 nM), 82.33%. The “Survival rate of A549 cells” value with A549 cells (1.5625 nM) is given as 98.18%; in the data set on A549 cells (3.125 nM) it was 98.39%; in the data set on A549 cells (6.25 nM), 98.23%; in the data set on A549 cells (12.5 nM), 96.93%; with A549 cells (25 nM) it was 96.16%; with A549 cells (50 nM), 96.33%. Further, the results for the “Survival rate of A549 cells” value in the data set with A549 cells (100 nM), with A549 cells (200 nM) and in the data set on A549 cells (400 nM) were 95.75%, 93.23% and 92.19%, respectively.

As to `Cn1cc2cc(Nc3nc(=O)n(Cc4nnn[nH]4)c(=O)n3Cc3ccc(C(F)(F)F)cc3)c(Cl)cc2n1` [Compound 8, (E)-3-(1H-tetrazol-5-yl)methyl)-6-(6-chloro-2-methyl-2H-indazol-5-yl)imino)-1-(4-(trifluoromethyl)benzyl)-1,3,5-triazin-2,4-dione], the 50% inhibitory concentration (IC50) at SARS-CoV-2 3CL^pro (setting [1]) is 500 to 1000 nM.

Take `CCn1nnnc1Cn1c(=O)[nH]/c(=N\c2cc3cn(C)nc3cc2Cl)n(Cc2ccc(Cl)cc2)c1=O` [Compound 20]: the 50% inhibitory concentration (IC50) at SARS-CoV-2 3CL^pro (setting [1]) is 200 to 500 nM.

For the molecule `Cn1cc2cc(Nc3nc(=O)n(Cc4nnn[nH]4)c(=O)n3Cc3ccc(-c4ccccc4)cc3)c(Cl)cc2n1` [Compound 7, (E)-3-((1H-tetrazol-5-yl)methyl)-1-([1,1-biphenyl]-4-ylmethyl)-6-((6-chloro-2-methyl-2H-indazol-5-yl)imino)-1,3,5-triazin-2,4-dione], on SARS-CoV-2 3CL^pro (setting [1]), the IC50 was over 1000 nM.

As for `Cn1cc2cc(/N=c3\[nH]c(=O)n(Cc4nnn[nH]4)c(=O)n3Cc3cc(F)cc(F)c3)c(Cl)cc2n1` [Compound 15], the half-inhibitory concentration (IC50) at SARS-CoV-2 3CL^pro (setting [1]) and on SARS-CoV-2 3CL^pro (setting [2]) was under 200 nM throughout.

Regarding `CC(C)Cn1nnnc1Cn1c(=O)[nH]/c(=N\c2cc3cn(C)nc3cc2Cl)n(Cc2cc(F)c(F)cc2F)c1=O` [Compound 24], at SARS-CoV-2 3CL^pro (setting [1]), the half-maximal inhibitory concentration (IC50) is over 1000 nM.

For the molecule `Cn1cc2cc(/N=c3\[nH]c(=O)n(Cc4nnn[nH]4)c(=O)n3Cc3ccc(Cl)cc3)c(Cl)cc2n1` [Compound 5], the IC50 on SARS-CoV-2 3CL^pro (setting [1]) lay within 200 to 500 nM.

Turning to `Cn1cc2cc(/N=c3\[nH]c(=O)n(Cc4nnn[nH]4)c(=O)n3Cc3ccc([N+](=O)[O-])cc3)c(Cl)cc2n1` [Compound 9], the half-inhibitory concentration (IC50) at SARS-CoV-2 3CL^pro (setting [1]) was over 1000 nM.

On to `Cc1cc(C)cc(Cn2c(=O)n(Cc3nnn[nH]3)c(=O)[nH]/c2=N\c2cc3cn(C)nc3cc2Cl)c1` [Compound 13], for which the IC50 on SARS-CoV-2 3CL^pro (setting [1]) was in the range of 500 to 1000 nM.

Take `COc1cc(Cn2c(=O)n(Cc3nnn[nH]3)c(=O)[nH]/c2=N\c2cc3cn(C)nc3cc2Cl)cc(OC)c1` [Compound 14]: the IC50 at SARS-CoV-2 3CL^pro (setting [1]) lay within 500 to 1000 nM.

Regarding `Cn1cc2cc(/N=c3\[nH]c(=O)n(Cc4nnn[nH]4)c(=O)n3Cc3ccc(OC(F)(F)F)cc3)c(Cl)cc2n1` [Compound 11], at SARS-CoV-2 3CL^pro (setting [1]), the IC50 was 500 to 1000 nM.
